Measured values taken from patent publication US8263598B2, “Substituted sulfonamide compounds” (Gruenenthal GmbH, priority 2008, dated 2012).

What was measured:
[1] = target: T1, human B1R receptor (hB1R) (Homo sapiens, UniProt P46663); test: FLIPR Ca2+ assay on human bradykinin 1 receptor (CHO K1 hB1R cells); assay type: cell-based; details: test substance 10 μM; CHO K1 cells with human B1R gene; agonist Lys-Des-Arg9-bradykinin 0.5 nM; compared to maximum achievable inhibition
T1 construct: host or cells: CHO K1 cells
T1 sequence (P46663 1-353): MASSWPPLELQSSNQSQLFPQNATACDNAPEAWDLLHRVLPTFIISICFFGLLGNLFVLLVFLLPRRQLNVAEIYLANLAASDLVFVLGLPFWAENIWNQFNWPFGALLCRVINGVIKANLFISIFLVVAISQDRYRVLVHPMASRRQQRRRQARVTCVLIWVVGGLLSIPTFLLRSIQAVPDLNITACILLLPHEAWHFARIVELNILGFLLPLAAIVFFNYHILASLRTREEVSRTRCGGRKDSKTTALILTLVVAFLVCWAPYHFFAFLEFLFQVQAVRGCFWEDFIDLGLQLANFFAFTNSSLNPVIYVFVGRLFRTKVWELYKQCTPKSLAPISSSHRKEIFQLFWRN
How it was run: (§1)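 Values are percent inhibition of agonist-evoked Ca²⁺ influx, measured by Fluo-4 fluorescence peak in FLIPR relative to maximum achievable inhibition. Compound at 10 μM was preincubated 10 min on B1R-transfected CHO K1 cells before challenge with 0.5 nM Lys-Des-Arg9-bradykinin (human) or 100 nM Des-Arg9-bradykinin (rat).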

[2] = target: T2, B1R receptor of rats (rB1R) (Rattus norvegicus, UniProt P97583); test: FLIPR Ca2+ assay on rat bradykinin 1 receptor (CHO K1 rB1R cells); assay type: cell-based; details: test substance 10 μM; CHO K1 cells with B1R gene of rats; agonist Des-Arg9-bradykinin 100 nM; compared to maximum achievable inhibition
T2 construct: host or cells: CHO K1 cells
T2 sequence (P97583 1-337): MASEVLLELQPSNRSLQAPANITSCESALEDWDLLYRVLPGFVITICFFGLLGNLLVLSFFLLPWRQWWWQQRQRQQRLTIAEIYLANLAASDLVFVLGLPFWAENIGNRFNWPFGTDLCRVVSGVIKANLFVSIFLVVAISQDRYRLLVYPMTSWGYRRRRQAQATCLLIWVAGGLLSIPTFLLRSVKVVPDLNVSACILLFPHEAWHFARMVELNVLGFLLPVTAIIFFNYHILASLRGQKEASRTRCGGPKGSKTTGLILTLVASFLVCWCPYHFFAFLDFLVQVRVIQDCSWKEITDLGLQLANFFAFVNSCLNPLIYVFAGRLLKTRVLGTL
How it was run: as §1

Compound	inhibition at 10 µM [1]	inhibition at 10 µM [2]
O=C(CC(NS(=O)(=O)c1ccc2ccccc2c1)c1ccccc1)N1CCn2c(Cc3cccnc3)ccc2C1 (centres unmarked) [Example 176, N-(3-Oxo-1-phenyl-3-(6-(pyridin-3-ylmethyl)-3,4-dihydropyrrolo[1,2-a]pyrazin-2(1H)-yl)propyl)naphthalene-2-sulfonamide]	45%	87%
COc1cc(C)c(S(=O)(=O)N(CCOCC(=O)N2CCn3cccc3C2C(C)C)CC(C)C)c(C)c1C (centres unmarked) [Example 102, N-isobutyl-N-(2-(2-(1-isopropyl-3,4-dihydropyrrolo[1,2-a]pyrazin-2(1H)-yl)-2-oxoethoxy)ethyl)-4-methoxy-2,3,6-trimethylbenzenesulfonamide]	96%	102%
Cc1cc(C)c(S(=O)(=O)N(C)CCOCC(=O)N2CCn3c(CN4CCCC4)ccc3C2c2ccccc2)c(C)c1 (centres unmarked) [Example 140, N,2,4,6-tetramethyl-N-(2-(2-oxo-2-(1-phenyl-6-(pyrrolidin-1-ylmethyl)-3,4-dihydropyrrolo[1,2-a]pyrazin-2(1H)-yl)ethoxy)ethyl)benzenesulfonamide]	102%	101%
COc1cc(C)c(S(=O)(=O)N(C)CCOCC(=O)N2CCn3c(Cc4ccncc4)ccc3C2)c(C)c1 [Example 165, 4-Methoxy-N,2,6-trimethyl-N-(2-(2-oxo-2-(6-(pyridin-4-ylmethyl)-3,4-dihydropyrrolo[1,2-a]pyrazin-2(1H)-yl)ethoxy)ethyl)benzenesulfonamide]	100%	99%
Cc1cc(C)c(S(=O)(=O)N(C)CCOCC(=O)N2CCn3c(CN4CCCCC4)ccc3C2c2ccccc2)c(C)c1 (centres unmarked) [Example 141, N,2,4,6-tetramethyl-N-(2-(2-oxo-2-(1-phenyl-6-(piperidin-1-ylmethyl)-3,4-dihydropyrrolo[1,2-a]pyrazin-2(1H)-yl)ethoxy)ethyl)benzenesulfonamide]	103%	101%
COc1cc(C)c(S(=O)(=O)N(CCOCC(=O)N2CCn3cccc3C2c2cccnc2)CC(C)C)c(C)c1C (centres unmarked) [Example 19, N-isobutyl-4-methoxy-2,3,6-trimethyl-N-(2-(2-oxo-2-(1-(pyridin-3-yl)-3,4-dihydropyrrolo[1,2-a]pyrazin-2(1H)-yl)ethoxy)ethyl)benzenesulfonamide]	101%	98%
COc1cc(C)c(S(=O)(=O)N(C)CCOCC(=O)N2CCn3cc(Cc4ccncc4)nc3C2)c(C)c1 [Example 179, 4-Methoxy-N,2,6-trimethyl-N-(2-(2-oxo-2-(2-(pyridin-4-ylmethyl)-5,6-dihydroimidazo[1,2-a]pyrazin-7(8H)-yl)ethoxy)ethyl)benzenesulfonamide]	100%	100%
COc1c(C)cc(S(=O)(=O)N(C)CCOCC(=O)N2CCn3cccc3C2c2cccnc2)c(C)c1C (centres unmarked) [Example 29, 4-methoxy-N,2,3,5-tetramethyl-N-(2-(2-oxo-2-(1-(pyridin-3-yl)-3,4-dihydropyrrolo[1,2-a]pyrazin-2(1H)-yl)ethoxy)ethyl)benzenesulfonamide]	96%	79%
O=C(CC(NS(=O)(=O)c1ccc2ccccc2c1)c1ccccc1)N1CCn2c(CN3CCCC3)ccc2C1 (centres unmarked) [Example 8, N-(3-oxo-1-phenyl-3-(6-(pyrrolidin-1-ylmethyl)-3,4-dihydropyrrolo[1,2-a]pyrazin-2(1H)-yl)propyl)naphthalene-2-sulfonamide]	95%	42%
Cc1cc(C)c(S(=O)(=O)N(C)CCOCC(=O)N2CCn3cccc3C2c2ccc(F)c(F)c2)c(C)c1 (centres unmarked) [Example 71, N-(2-(2-(1-(3,4-difluorophenyl)-3,4-dihydropyrrolo[1,2-a]pyrazin-2(1H)-yl)-2-oxoethoxy)ethyl)-N,2,4,6-tetramethylbenzenesulfonamide]	95%	95%
O=C(CC(NS(=O)(=O)c1ccc2ccccc2c1)c1ccccc1)N1CCn2c(ccc2-c2ccncc2)C1 (centres unmarked) [Example 168, N-(3-Oxo-1-phenyl-3-(6-(pyridin-4-yl)-3,4-dihydropyrrolo[1,2-a]pyrazin-2(1H)-yl)propyl)naphthalene-2-sulfonamide]	55%	57%
COc1c(C)cc(S(=O)(=O)N(C)CCOCC(=O)N2CCn3cccc3C2c2ccc(C(F)(F)F)cc2F)c(C)c1C (centres unmarked) [Example 39, N-(2-(2-(1-(2-fluoro-4-(trifluoromethyl)phenyl)-3,4-dihydropyrrolo[1,2-a]pyrazin-2(1H)-yl)-2-oxoethoxy)ethyl)-4-methoxy-N,2,3,5-tetramethyl-benzenesulfonamide]	35%	80%
CCCC1c2cccn2CCN1C(=O)COCCN(CC(C)C)S(=O)(=O)c1c(C)cc(OC)c(C)c1C (centres unmarked) [Example 101, N-isobutyl-4-methoxy-2,3,6-trimethyl-N-(2-(2-oxo-2-(1-propyl-3,4-dihydropyrrolo[1,2-a]pyrazin-2(1H)-yl)ethoxy)ethyl)benzenesulfonamide]	91%	102%
COc1cc(C)c(S(=O)(=O)N(CCOCC(=O)N2CCn3c(CN(C)C)ccc3C2CCc2ccccc2)Cc2ccccc2)c(C)c1C (centres unmarked) [Example 119, N-benzyl-N-(2-(2-(6-((dimethylamino)methyl)-1-phenethyl-3,4-dihydropyrrolo-[1,2-a]pyrazin-2(1H)-yl)-2-oxoethoxy)ethyl)-4-methoxy-2,3,6-trimethylbenzene-sulfonamide]	52%	54%
COc1cc(C)c(S(=O)(=O)N(CCOCC(=O)N2CCn3c(CN4CCOCC4)ccc3C2c2ccccc2)Cc2ccccc2)c(C)c1C (centres unmarked) [Example 117, N-benzyl-4-methoxy-2,3,6-trimethyl-N-(2-(2-(6-(morpholinomethyl)-1-phenyl-3,4-dihydropyrrolo[1,2-a]pyrazin-2(1H)-yl)-2-oxoethoxy)ethyl)benzene-sulfonamide]	82%	88%
CCC1c2ccc(C)n2CCN1C(=O)COCCN(CC(C)C)S(=O)(=O)c1c(C)cc(OC)c(C)c1C (centres unmarked) [Example 103, N-(2-(2-(1-ethyl-6-methyl-3,4-dihydropyrrolo[1,2-a]pyrazin-2(1H)-yl)-2-oxoethoxy)ethyl)-N-isobutyl-4-methoxy-2,3,6-trimethylbenzenesulfonamide]	101%	102%
COc1c(C)cc(S(=O)(=O)N(C)CCOCC(=O)N2CCn3cccc3C2c2ccc(F)c(F)c2)c(C)c1C (centres unmarked) [Example 33, N-(2-(2-(1-(3,4-difluorophenyl)-3,4-dihydropyrrolo[1,2-a]pyrazin-2(1H)-yl)-2-oxoethoxy)ethyl)-4-methoxy-N,2,3,5-tetramethylbenzenesulfonamide]	71%	66%
Cc1cc(C)c(S(=O)(=O)N(C)CCOCC(=O)N2CCn3cccc3C2c2ccccc2)c(C)c1 (centres unmarked) [Example 70, N,2,4,6-tetramethyl-N-(2-(2-oxo-2-(1-phenyl-3,4-dihydropyrrolo[1,2-a]pyrazin-2(1H)-yl)ethoxy)ethyl)benzenesulfonamide]	101%	99%
COc1c(C)cc(S(=O)(=O)N(C)CCOCC(=O)N2CCn3cccc3C2c2ccc(Cl)nc2)c(C)c1C (centres unmarked) [Example 30, N-(2-(2-(1-(6-chloropyridin-3-yl)-3,4-dihydropyrrolo[1,2-a]pyrazin-2(1H)-yl)-2-oxoethoxy)ethyl)-4-methoxy-N,2,3,5-tetramethylbenzenesulfonamide]	98%	76%
COc1cc(C)c(S(=O)(=O)N(C)CCOCC(=O)N2CCn3c(CN(C)C)ccc3C2c2cccs2)c(C)c1 (centres unmarked) [Example 17, N-(2-(2-(6-((dimethylamino)methyl)-1-(thiophen-2-yl)-3,4-dihydropyrrolo[1,2-a]pyrazin-2(1H)-yl)-2-oxoethoxy)ethyl)-4-methoxy-N,2,6-trimethylbenzene-sulfonamide]	102%	102%
COc1cc(C)c(S(=O)(=O)N(C)CCOCC(=O)N2CCn3cccc3C2c2ccc(Cl)nc2)c(C)c1C (centres unmarked) [Example 82, N-(2-(2-(1-(6-chloropyridin-3-yl)-3,4-dihydropyrrolo[1,2-a]pyrazin-2(1H)-yl)-2-oxoethoxy)ethyl)-4-methoxy-N,2,3,6-tetramethylbenzenesulfonamide]	101%	99%
CCC1c2cccn2CCN1C(=O)C[C@@H](NS(=O)(=O)c1ccc2ccccc2c1)c1ccccc1 (stereo partly drawn) [Example 162, N-((1R)-3-(1-Ethyl-3,4-dihydropyrrolo[1,2-a]pyrazin-2(1H)-yl)-3-oxo-1-phenylpropyl)naphthalene-2-sulfonamide]	57%	98%
